Where a name gives a salt, the structure may show the parent alone. Some results are limits rather than exact numbers.

The term IC50 denotes the concentration that inhibits the measured activity by half.

One assay deals with IRAK4 (Homo sapiens (Human), UniProt Q9NWZ3). In words: Screening the compounds against IRAK4 with ATP (Caliper, FAM-labeled peptide). It is filed as biochemical. The settings on record: IRAK4 kinase inhibition relative to CA4948. The protocol: Prepare Ix kinase base buffer and stop buffer for testing kinases: (1) base buffer: 50 mM HEPES (pH 7.5), 0.0015% Brij-35; (2) stop buffer: 100 mM HEPES (pH 7.5), 0.015% Brij-35, 0.2% Coating Reagent #3, 50 mM EDTA. Then prepare compounds for testing: Dilute the compound to 50× of the final desired highest inhibitor concentration in reaction by 100% DMSO. Transfer 100 μL of this compound dilution to a well in a 96-well plate (source plate).
Chain of IRAK4 (Q9NWZ3 whole entry): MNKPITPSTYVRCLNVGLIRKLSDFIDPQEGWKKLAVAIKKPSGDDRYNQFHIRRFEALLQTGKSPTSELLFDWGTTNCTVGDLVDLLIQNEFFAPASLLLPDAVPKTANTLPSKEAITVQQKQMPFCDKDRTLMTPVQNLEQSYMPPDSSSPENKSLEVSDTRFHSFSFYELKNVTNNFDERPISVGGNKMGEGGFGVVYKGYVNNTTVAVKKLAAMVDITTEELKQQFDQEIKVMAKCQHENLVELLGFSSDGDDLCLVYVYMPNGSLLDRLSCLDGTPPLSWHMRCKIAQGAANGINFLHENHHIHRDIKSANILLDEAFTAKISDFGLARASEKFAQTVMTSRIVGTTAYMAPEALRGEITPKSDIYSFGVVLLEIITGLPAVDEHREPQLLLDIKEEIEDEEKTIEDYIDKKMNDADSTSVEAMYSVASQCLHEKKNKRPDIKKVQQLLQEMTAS
Serially dilute the compounds by 3-fold for a total of 10 points. Transfer 10 μL of the compound from the source plate to a new 96-well plate (intermediate plate) and add 90 μL of Ix kinase buffer. Shake the mixture on the intermediate plate for 10 min. Transfer 5 μL of each well from the 96-well intermediate plate to a 384-well plate in duplicates. Add 10 μL of 2.5× enzyme solution to each well of the 384-well assay plate and incubate at room temperature for 10 min. Add 10 μL, of 2.5×FAM-labeled peptide and ATP solution and incubate at 28° C. for a period of time. Finally stop the reaction by adding 30 μL of stop buffer and collect data on Caliper to obtain the IC50.
`Cl.Cn1cc(-c2cccc(NC(=O)c3cc4oc(N5CCOCC5)nc4nc3N3CCN(C4CC4)CC3)n2)cn1` [Compound A35, 5-(4-Cyclopropylpiperazin-1-yl)-N-(6-(1-methyl-1H-pyrazol-4-yl)pyridin-2-yl)-2-morpholinooxazolo[4,5-b]pyridine-6-carboxamide Hydrochloride]: the “activity, times better than that of the positive control compound CA4948” value is recorded as “more than 10 times”.
Same read-out and setting: for `Cl.Cn1cc(-c2cccc(NC(=O)c3cc4oc(N5CCOCC5)nc4nc3N3CCN(CCO)CC3)n2)cn1` [Compound A36, 5-(4-(2-Hydroxyethyl)piperazin-1-yl)-N-(6-(1-methyl-1H-pyrazol-4-yl)pyridin-2-yl)-2-morpholinooxazolo[4,5-b]pyridine-6-carboxamide Hydrochloride] the value was “more than 5 times”.
On to `COc1nc2nc(N3CCOCC3)oc2cc1C(=O)Nc1cccc(-c2cnn(C)c2)n1` [Compound A54, 5-Methoxy-N-(6-(1-methyl-1H-pyrazol-4-yl)pyridin-2-yl)-2-morpholinooxazolo[4,5-b]pyridine-6-carboxamide], for which the “activity, times better than that of the positive control compound CA4948” value is on record as “more than 5 times”.
Same read-out and setting: for `COC1CCN(c2nc3c(cc2C(=O)Nc2cccc(-c4cnn(C)c4)n2)CC(C)(C)O3)CC1` [Compound B1, 6-(4-Methoxypiperidin-1-yl)-2,2-dimethyl-N-(6-(1-methyl-1H-pyrazol-4-yl)pyridin-2-yl)-2,3-dihydrofuro[2,3-b]pyridine-5-carboxamide] the value was “more than 25 times”.

The assay is the same for the next values; noted with them: read-out: IC50 (nM) (10 μM ATP).
For `COC1CCN(c2nc3nc(N4CCNCC4)oc3cc2C(=O)Nc2cccc(-c3cnn(C)c3)n2)CC1` [Compound A51, 5-(4-Methoxypiperidin-1-yl)-N-(6-(1-methyl-1H-pyrazol-4-yl)pyridin-2-yl)-2-(piperazin-1-yl)oxazolo[4,5-b]pyridine-6-carboxamide Hydrochloride], the IC50 was 7 nM.
On the same count and under the same terms, next, `COC1CCN(c2nc3nc(N4CCN(CCO)CC4)oc3cc2C(=O)Nc2cccc(-c3cnn(C)c3)n2)CC1` [Compound A57, 2-(4-(2-Hydroxyethyl)piperazin-1-yl)-5-(4-methoxypiperidin-1-yl)-N-(6-(1-methyl-1H-pyrazol-4-yl)pyridin-2-yl)oxazolo[4,5-b]pyridine-6-carboxamide]: 5.1 nM.

The same assay, now with this note: read-out: IC50 (nM) (10 μM ATP); IRAK4 kinase, 10 μM ATP.
Take `Cl.Cn1cc(-c2cccc(NC(=O)c3cc4oc(N5CCOCC5)nc4nc3N3CCN(C4CC4)CC3)n2)cn1` [Compound A35, 5-(4-Cyclopropylpiperazin-1-yl)-N-(6-(1-methyl-1H-pyrazol-4-yl)pyridin-2-yl)-2-morpholinooxazolo[4,5-b]pyridine-6-carboxamide Hydrochloride]: the IC50 is 8.9 nM.
The same measure, in the same setting: for `Cl.Cn1cc(-c2cccc(NC(=O)c3cc4oc(N5CCOCC5)nc4nc3N3CCN(CCO)CC3)n2)cn1` [Compound A36, 5-(4-(2-Hydroxyethyl)piperazin-1-yl)-N-(6-(1-methyl-1H-pyrazol-4-yl)pyridin-2-yl)-2-morpholinooxazolo[4,5-b]pyridine-6-carboxamide Hydrochloride] the value was 17 nM; for `CN1CCN(c2nc3nc(N4CCOCC4)oc3cc2C(=O)Nc2cccc(-c3cnn(C)c3)n2)CC1CO` (centres unmarked) [Compound A37, 5-(3-(Hydroxymethyl)-4-methylpiperazin-1-yl)-N-(6-(1-methyl-1H-pyrazol-4-yl)pyridin-2-yl)-2-morpholinooxazolo[4,5-b]pyridine-6-carboxamide Hydrochloride], 462 nM.
Same read-out and setting: next, `N#Cc1cccc(NC(=O)c2cc3oc(N4CCOCC4)nc3nc2N2CCC(O)CC2)n1` [Compound A42, N-(6-Cyanopyridin-2-yl)-5-(4-hydroxypiperidin-1-yl)-2-morpholinooxazolo[4,5-b]pyridine-6-carboxamide]: 87 nM.
Same read-out and setting: next, `COc1cccc(NC(=O)c2cc3oc(N4CCOCC4)nc3nc2N2CCC(O)CC2)n1` [Compound A43, 5-(4-Hydroxypiperidin-1-yl)-N-(6-methoxypyridin-2-yl)-2-morpholinooxazolo[4,5-b]pyridine-6-carboxamide]: 137 nM; `COc1ncccc1NC(=O)c1cc2oc(N3CCOCC3)nc2nc1N1CCC(O)CC1` [Compound A45, 5-(4-Hydroxypiperidin-1-yl)-N-(2-methoxypyridin-3-yl)-2-morpholinooxazolo[4,5-b]pyridine-6-carboxamide]: 131 nM.
In the case of `COc1cccc(NC(=O)c2cc3oc(N4CCOCC4)nc3nc2N2CCC(OC)CC2)n1` [Compound A46, 5-(4-Methoxypiperidin-1-yl)-N-(6-methoxypyridin-2-yl)-2-morpholinooxazolo[4,5-b]pyridine-6-carboxamide], the IC50 was found to be 179 nM.
Same read-out and setting: next, `Cc1cc(-c2nc(NC(=O)c3cc4oc(N5CCOCC5)nc4nc3N3CC[C@@H](O)C3)co2)ccn1` [Compound A49, (R)-5-(3-Hydroxypyrrolidin-1-yl)-N-(2-(2-methylpyridin-4-yl)oxazol-4-yl)-2-morpholinooxazolo[4,5-b]pyridine-6-carboxamide]: more than 6000 nM; `COc1ncccc1NC(=O)c1cc2oc(N3CCOCC3)nc2nc1N1CCC(OC)CC1` [Compound A50, 5-(4-Methoxypiperidin-1-yl)-N-(2-methoxypyridin-3-yl)-2-morpholinooxazolo[4,5-b]pyridine-6-carboxamide]: 98 nM; `COC1CCN(c2nc3nc(N4CCN(C)CC4)oc3cc2C(=O)Nc2cccc(-c3cnn(C)c3)n2)CC1` [Compound A52, 5-(4-Methoxypiperidin-1-yl)-N-(6-(1-methyl-1H-pyrazol-4-yl)pyridin-2-yl)-2-(4-methylpiperazin-1-yl)oxazolo[4,5-b]pyridine-6-carboxamide]: 5.1 nM.
Same read-out and setting: next, `COc1nc2nc(N3CCOCC3)oc2cc1C(=O)Nc1cccc(-c2cnn(C)c2)n1` [Compound A54, 5-Methoxy-N-(6-(1-methyl-1H-pyrazol-4-yl)pyridin-2-yl)-2-morpholinooxazolo[4,5-b]pyridine-6-carboxamide]: 21 nM; `Cn1cc(-c2cccc(NC(=O)c3cc4oc(N5CCNCC5)nc4nc3N3CCC4(CCO4)CC3)n2)cn1` [Compound A55, N-(6-(1-Methyl-1H-pyrazol-4-yl)pyridin-2-yl)-2-(piperazin-1-yl)-5-(1-oxa-7-azaspiro[3.5]nonan-7-yl)oxazolo[4,5-b]pyridine-6-carboxamide]: 5.9 nM; `Cn1cc(-c2cccc(NC(=O)c3cc4oc(N5CCNCC5)nc4nc3N3CCC(C)(O)CC3)n2)cn1` [Compound A56, 5-(4-Hydroxy-4-methylpiperidin-1-yl)-N-(6-(1-methyl-1H-pyrazol-4-yl)pyridin-2-yl)-2-(piperazin-1-yl)oxazolo[4,5-b]pyridine-6-carboxamide]: 7.8 nM.
Consider `CN1CCN(c2nc3nc(N4CCC5(CCO5)CC4)c(C(=O)Nc4cccc(-c5cnn(C)c5)n4)cc3o2)CC1` [Compound A58, N-(6-(1-Methyl-1H-pyrazol-4-yl)pyridin-2-yl)-2-(4-methylpiperazin-1-yl)-5-(1-oxa-7-azaspiro[3.5]nonan-7-yl)oxazolo[4,5-b]pyridine-6-carboxamide], for which the IC50 stood at 4.9 nM.
Same read-out and setting: next, `CN1CCN(c2nc3nc(N4CCC(C)(O)CC4)c(C(=O)Nc4cccc(-c5cnn(C)c5)n4)cc3o2)CC1` [Compound A59, 5-(4-Hydroxy-4-methylpiperidin-1-yl)-N-(6-(1-methyl-1H-pyrazol-4-yl)pyridin-2-yl)-2-(4-methylpiperazin-1-yl)oxazolo[4,5-b]pyridine-6-carboxamide]: 6.6 nM.
On to `COC1CCN(c2nc3c(cc2C(=O)Nc2cccc(-c4cnn(C)c4)n2)CC(C)(C)O3)CC1` [Compound B1, 6-(4-Methoxypiperidin-1-yl)-2,2-dimethyl-N-(6-(1-methyl-1H-pyrazol-4-yl)pyridin-2-yl)-2,3-dihydrofuro[2,3-b]pyridine-5-carboxamide], for which the IC50 was found to be 4.5 nM.
On to `CN1CCN(c2nc3c(cc2C(=O)Nc2cccc(-c4cnn(C)c4)n2)CC(C)(C)O3)CC1` [Compound B2, 2,2-Dimethyl-N-(6-(1-methyl-1H-pyrazol-4-yl)pyridin-2-yl)-6-(4-methylpiperazin-1-yl)-2,3-dihydrofuro[2,3-b]pyridine-5-carboxamide], for which the half-inhibitory concentration (IC50) was 54 nM.
Turning to `Cn1cc(-c2cccc(NC(=O)c3cc4c(nc3N3CCN(CCO)CC3)OC(C)(C)C4)n2)cn1` [Compound B3, 6-(4-(2-Hydroxyethyl)piperazin-1-yl)-2,2-dimethyl-N-(6-(1-methyl-1H-pyrazol-4-yl)pyridin-2-yl)-2,3-dihydrofuro[2,3-b]pyridine-5-carboxamide], the IC50 came to 31 nM.
For the molecule `Cn1cc(-c2cccc(NC(=O)c3cc4c(nc3N3CCN(C5CC5)CC3)OC(C)(C)C4)n2)cn1` [Compound B4, 6-(4-Cyclopropylpiperazin-1-yl)-2,2-dimethyl-N-(6-(1-methyl-1H-pyrazol-4-yl)pyridin-2-yl)-2,3-dihydrofuro[2,3-b]pyridine-5-carboxamide], the IC50 amounted to 7.5 nM.
`Cn1cc(-c2cccc(NC(=O)c3cc4c(nc3N3CCC5(CCO5)CC3)OC(C)(C)C4)n2)cn1` [Compound B6, 2,2-Dimethyl-N-(6-(1-methyl-1H-pyrazol-4-yl)pyridin-2-yl)-6-(1-oxa-7-azaspiro[3.5]nonan-7-yl)-2,3-dihydrofuro[2,3-b]pyridine-5-carboxamide]: the IC50 was found to be 5.9 nM.
Same read-out and setting: next, `Cn1cc(-c2cccc(NC(=O)c3cc4c(nc3N3CCC(C)(O)CC3)OC(C)(C)C4)n2)cn1` [Compound B7, 6-(4-Hydroxy-4-methylpiperidin-1-yl)-2,2-dimethyl-N-(6-(1-methyl-1H-pyrazol-4-yl)pyridin-2-yl)-2,3-dihydrofuro[2,3-b]pyridine-5-carboxamide]: 11 nM; `Cn1cc(-c2cccc(NC(=O)c3cc4c(nc3N3CCNC5(CC5)C3)OC(C)(C)C4)n2)cn1` [Compound B8, 2,2-Dimethyl-N-(6-(1-methyl-1H-pyrazol-4-yl)pyridin-2-yl)-6-(4,7-diazaspiro[2.5]octan-7-yl)-2,3-dihydrofuro[2,3-b]pyridine-5-carboxamide]: 224 nM; `CC1(C)Cc2cc(C(=O)Nc3cccn([C@H]4C[C@H]4F)c3=O)c(N3CCC(O)CC3)nc2O1` [Compound B9, N-(1-((1S,2R)-2-Fluorocyclopropyl)-2-oxo-1,2-dihydropyridin-3-yl)-6-(4-hydroxypiperidin-1-yl)-2,2-dimethyl-2,3-dihydrofuro[2,3-b]pyridine-5-carboxamide]: 69 nM.

Source of the values: patent US20250074919A1, “Heteroaryl compounds as inhibitors of irak4, compositions and applications thereof” (Accro Bioscience (HK) Limited, priority 2021, published 2025).
